Test results published in PMC4892435, “Structure of astrotactin-2: a conserved vertebrate-specific and perforin-like membrane protein involved in neuronal development” (Open Biology, 2016).

Target: T1, ASTN-2_701-1288 (Homo sapiens, UniProt O75129)
T1 construct: gene ASTN2; endodomain, residues 701-1288 in methods (crystal construct EGF-3 to C-terminus is printed 649-1288; borders may mix numberings); secreted from HEK293T, hexahistidine
T1 sequence (O75129 701-1288 isoform O75129-2): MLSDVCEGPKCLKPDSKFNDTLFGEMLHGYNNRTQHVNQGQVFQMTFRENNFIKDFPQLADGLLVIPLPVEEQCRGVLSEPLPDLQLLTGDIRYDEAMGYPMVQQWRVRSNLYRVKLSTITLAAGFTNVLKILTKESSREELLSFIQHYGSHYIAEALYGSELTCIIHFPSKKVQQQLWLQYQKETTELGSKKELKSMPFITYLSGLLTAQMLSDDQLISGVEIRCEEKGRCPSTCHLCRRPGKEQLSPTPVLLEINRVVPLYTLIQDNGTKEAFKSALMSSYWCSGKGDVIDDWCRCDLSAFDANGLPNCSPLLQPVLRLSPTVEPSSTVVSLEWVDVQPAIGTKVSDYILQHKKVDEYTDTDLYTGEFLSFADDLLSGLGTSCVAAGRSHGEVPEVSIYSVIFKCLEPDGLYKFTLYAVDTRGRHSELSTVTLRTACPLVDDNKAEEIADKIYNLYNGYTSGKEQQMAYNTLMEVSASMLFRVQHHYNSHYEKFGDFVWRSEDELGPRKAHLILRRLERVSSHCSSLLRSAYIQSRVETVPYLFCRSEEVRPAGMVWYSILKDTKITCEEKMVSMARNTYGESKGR
Assay: SPR, Biacore T200, immobilised biotinylated ligand
Format: binding
Conditions: pH 7.5, 20 °C, 150 mM NaCl; labelled compound (biotin, immobilised); one Kd printed jointly for PIP3 and PIP2; construct of this run not stated

Substance	Kd
PtdIns(3,4,5)P3 (C-39B6a)	30 µM
PtdIns(4,5)P2 (C-45B6a)	30 µM
